Laboratory results from article PMC9569640, “Structural Insights into the Binding Propensity of Human SHIP2 SH2 to Oncogenic CagA Isoforms from Helicobacter pylori” (International Journal of Molecular Sciences, 2022).
Where a chain is given by its changes, count along the chain named. Like-named read-outs stand apart in the source and are kept apart here. Square brackets hold non-standard residues; d marks the D form. Peptide text beside a SMILES is read from it. pY = N[C@@H](Cc1ccc(OP(=O)(O)O)cc1)C(=O)O

Legend:
[1] = molecular target: T1, SHIP2-SH2 (wild type) (Homo sapiens, UniProt O15357); experiment: Fluorescence polarization binding of FAM-labeled phosphopeptides to wild-type SHIP2-SH2; conditions: FP assay, N-terminally FAM-labeled phosphopeptide 100 nM, 20 mM Tris, 100 mM NaCl, 10 mM DTT, 0.02% NaN3, pH 7.5, each reaction repeated three times, averaged, ± standard error of curve fitting, read-out: dissociation constant (KD) for wild-type SHIP2-SH2
T1 construct: The SHIP2 SH2 domain (hereafter represented by SHIP2-SH2); made in house
T1 sequence (O15357 21-117 limits assumed): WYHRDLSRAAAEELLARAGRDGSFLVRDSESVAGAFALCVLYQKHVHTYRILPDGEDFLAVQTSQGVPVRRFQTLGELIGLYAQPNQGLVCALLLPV
Procedure: (§1) Expression and purification of wild-type SHIP2-SH2 and its mutants including R28A, S49A, E50A, S51A, R70A, S84A and Q107A were carried out using the previously described method, and circular dichroism (CD) spectra were collected to confirm no obvious secondary structure change of the mutants. The purified proteins were concentrated to a final concentration of 0.2 mM for NMR experiments in the NMR buffer containing 90% H2O/10% D2O (v/v), 20 mM Tris, 100 mM NaCl, 10 mM DTT and 0.02% NaN3 at pH 7.5. Peptides derived from the four types of EPIYA motifs were synthesized by GL Biochem Ltd. (Shanghai, China). Tyr-phosphorylated peptides included: 8-mer (E-P-I-pY-A-K-V-N) and 13-mer (E-N-E-P-I-pY-A-K-V-N-K-K-K) EPIYA-A; 8-mer (E-P-I-pY-A-Q-V-A) and 13-mer (P-E-E-P-I-pY-A-Q-V-A-K-K-V) EPIYA-B; and 8-mer EPIYA-CD (E-P-I-pY-A-T-I-D), 13-mer EPIYA-C (S-P-E-P-I-pY-A-T-I-D-D-L-G) and 13-mer EPIYA-D (S-P-E-P-I-pY-A-T-I-D-F-D-E). The purities of the peptides were determined to be above 98% by high performance liquid chromatography (HPLC) and the molecular weights were confirmed by electrospray ionization mass spectrometry (ESI-MS).
(§2) The used phosphopeptides for different versions of CagA EPIYA A/B/C/D motifs were labeled with FAM at the N-terminal end and dissolved in a buffer containing 20 mM Tris, 100 mM NaCl, 10 mM DTT and 0.02% NaN3, at pH 7.5. The peptide concentration was kept at 100 nM, while wild-type SHIP2-SH2 and its mutants were serially diluted with the concentrations ranging from micromolar to nanomolar, and then mixed with the peptide, respectively. FP values of FAM-labeled peptides bound by SHIP2-SH2 were measured using a SpectraMax i3x multi-mode plate reader (Molecular Devices) by recording the excitation at 485 nm and emission at 528 nm. Each binding reaction was repeated three times, and the polarization values were averaged (given in units of mP). The averaged polarization value of each titration point was subtracted from that of the free peptide to obtain the final value. The dissociation constants (KD) were calculated using the final polarization value of each titration point as previously described.

[2] = molecular target: T2, SHIP2-SH2 E50A (Homo sapiens, UniProt O15357, E50A); experiment: Fluorescence polarization binding, SHIP2-SH2 mutant E50A; conditions: FP assay; FAM-labeled 13-mer phosphopeptide 100 nM; pH 7.5; n = 3 averaged; ± standard error of fitting; SEM; read-out: dissociation constant (KD) for SHIP2-SH2 E50A
T2 construct: The SHIP2 SH2 domain (hereafter represented by SHIP2-SH2); made in house
T2 sequence (O15357 21-117 E50A limits assumed): T1 sequence (O15357 21-117 limits assumed) with E30A
Procedure: as §1, §2

[3] = molecular target: T3, SHIP2-SH2 R70A (Homo sapiens, UniProt O15357, R70A); experiment: Fluorescence polarization binding, SHIP2-SH2 mutant R70A; conditions: FP assay; FAM-labeled 13-mer phosphopeptide 100 nM; pH 7.5; n = 3 averaged; ± standard error of fitting; SEM; read-out: dissociation constant (KD) for SHIP2-SH2 R70A
T3 construct: The SHIP2 SH2 domain (hereafter represented by SHIP2-SH2); made in house
T3 sequence (O15357 21-117 R70A limits assumed): T1 sequence (O15357 21-117 limits assumed) with R50A
Procedure: as §1, §2

[4] = molecular target: T4, SHIP2-SH2 S84A (Homo sapiens, UniProt O15357, S84A); experiment: Fluorescence polarization binding, SHIP2-SH2 mutant S84A; conditions: FP assay; FAM-labeled 13-mer phosphopeptide 100 nM; pH 7.5; n = 3 averaged; ± standard error of fitting; SEM; read-out: dissociation constant (KD) for SHIP2-SH2 S84A
T4 construct: The SHIP2 SH2 domain (hereafter represented by SHIP2-SH2); made in house
T4 sequence (O15357 21-117 S84A limits assumed): T1 sequence (O15357 21-117 limits assumed) with S64A
Procedure: as §1, §2

[5] = molecular target: T5, SHIP2-SH2 S51A (Homo sapiens, UniProt O15357, S51A); experiment: Fluorescence polarization binding, SHIP2-SH2 mutant S51A; conditions: FP assay; FAM-labeled 13-mer phosphopeptide 100 nM; pH 7.5; n = 3 averaged; ± standard error of fitting; SEM; read-out: dissociation constant (KD) for SHIP2-SH2 S51A
T5 construct: The SHIP2 SH2 domain (hereafter represented by SHIP2-SH2); made in house
T5 sequence (O15357 21-117 S51A limits assumed): T1 sequence (O15357 21-117 limits assumed) with S31A
Procedure: as §1, §2

[6] = molecular target: T6, SHIP2-SH2 Q107A (Homo sapiens, UniProt O15357, Q107A); experiment: Fluorescence polarization binding, SHIP2-SH2 mutant Q107A; conditions: FP assay; FAM-labeled 13-mer phosphopeptide 100 nM; pH 7.5; n = 3 averaged; ± standard error of fitting; SEM; read-out: dissociation constant (KD) for SHIP2-SH2 Q107A
T6 construct: The SHIP2 SH2 domain (hereafter represented by SHIP2-SH2); made in house
T6 sequence (O15357 21-117 Q107A limits assumed): T1 sequence (O15357 21-117 limits assumed) with Q87A
Procedure: as §1, §2

[7] = molecular target: T7, SHIP2-SH2 R28A (Homo sapiens, UniProt O15357, R28A); experiment: Fluorescence polarization binding, SHIP2-SH2 mutant R28A; conditions: FP assay; FAM-labeled 13-mer phosphopeptide 100 nM; pH 7.5; n = 3 averaged; ± standard error of fitting; SEM; read-out: dissociation constant (KD) for SHIP2-SH2 R28A
T7 construct: The SHIP2 SH2 domain (hereafter represented by SHIP2-SH2); made in house
T7 sequence (O15357 21-117 R28A limits assumed): T1 sequence (O15357 21-117 limits assumed) with R8A
Procedure: as §1, §2

[8] = molecular target: T8, SHIP2-SH2 S49A (Homo sapiens, UniProt O15357, S49A); experiment: Fluorescence polarization binding, SHIP2-SH2 mutant S49A; conditions: FP assay; FAM-labeled 13-mer phosphopeptide 100 nM; pH 7.5; n = 3 averaged; ± standard error of fitting; SEM; read-out: dissociation constant (KD) for SHIP2-SH2 S49A
T8 construct: The SHIP2 SH2 domain (hereafter represented by SHIP2-SH2); made in house
T8 sequence (O15357 21-117 S49A limits assumed): T1 sequence (O15357 21-117 limits assumed) with S29A
Procedure: as §1, §2

[9] = molecular target: T1, SHIP2-SH2 (wild type); conditions: summary Figure 6F, value from the authors' earlier NMR/FP study, cited from earlier work
Text: Figure 6 The binding interface and affinity of SHIP2-SH2 for different native ligands. The binding interface of SHIP2-SH2 for FcgR2B ITIM (A), CagA EPIYA-C/D (B), c-MET C-terminus (C), CagA EPIYA-A/B (D) is colored in blue. The additional interface of SHIP2-SH2 for 13-mer FcgR2B ITIM compared to 8-mer FcgR2B ITIM is colored in green. The interface was drawn according to the residues of SHIP2-SH2 showing a CSP greater than 0.2 ppm in NMR titration experiments with respective ligand. (E) The summarized three regions of SHIP2-SH2 which are differently engaged for binding different ligands are hig ...

[10] = molecular target: SHIP2-SH2; conditions: 6-mer phosphopeptides (-2 to +3), both with Leu at pY+3; cited from earlier work
Text: When the natural phosphopeptides interacting with SHIP2-SH2 were ranked according to their affinities to SHIP2-SH2, it was seen that the affinity was related to the residue type at the pY+3 position (Figure 6F). The ligands showing high and moderate affinities have Leu (L) or Ile (I) residues at this site, while ligands with a low affinity have Val (V) at this site. These indicate that SHIP2-SH2 may have a preference for the hydrophobic side chain of the residue at the pY+3 site of its Tyr-phosphorylated ligand.

Molecule | Kd [2] [µM] | Kd [3] [µM] | Kd [4] [µM] | Kd [5] [µM] | Kd [6] [µM] | Kd ([1]; SEM) [µM] | Kd [7] [µM] | Kd [8] [µM] | other results
CC[C@H](C)[C@H](NC(=O)[C@@H](NC(=O)[C@H](C)NC(=O)[C@H](Cc1ccc(OP(=O)(O)O)cc1)NC(=O)[C@@H](NC(=O)[C@@H]1CCCN1C(=O)[C@@H](N)CCC(=O)O)[C@@H](C)CC)[C@@H](C)O)C(=O)N[C@@H](CC(=O)O)C(=O)O [8-mer EPIYA-CD] (H-EPI[pY]ATID-OH) |  |  |  |  |  |  |  |  | Kd [1]: 4.45 µM
CC[C@H](C)[C@H](NC(=O)[C@@H]1CCCN1C(=O)[C@H](CCC(=O)O)NC(=O)[C@H](CC(N)=O)NC(=O)[C@@H](N)CCC(=O)O)C(=O)N[C@@H](Cc1ccc(OP(=O)(O)O)cc1)C(=O)N[C@@H](C)C(=O)N[C@@H](CCCCN)C(=O)N[C@H](C(=O)N[C@@H](CC(N)=O)C(=O)N[C@@H](CCCCN)C(=O)N[C@@H](CCCCN)C(=O)N[C@@H](CCCCN)C(=O)O)C(C)C [EPIYA-A] (H-ENEPI[pY]AKVNKKK-OH) | 8.28 ± 0.67 | 539 ± 24.2 | 16.4 ± 0.47 | 180 ± 37.4 | 25.5 ± 1.5 | 23.4 ± 1.03 | 133 ± 6.95 | 419 ± 18.6 | 
CC[C@H](C)[C@H](NC(=O)[C@@H]1CCCN1C(=O)[C@H](CCC(=O)O)NC(=O)[C@H](CCC(=O)O)NC(=O)[C@@H]1CCCN1)C(=O)N[C@@H](Cc1ccc(OP(=O)(O)O)cc1)C(=O)N[C@@H](C)C(=O)N[C@@H](CCC(N)=O)C(=O)N[C@H](C(=O)N[C@@H](C)C(=O)N[C@@H](CCCCN)C(=O)N[C@@H](CCCCN)C(=O)N[C@H](C(=O)O)C(C)C)C(C)C [EPIYA-B] (H-PEEPI[pY]AQVAKKV-OH) | 6.6 ± 0.6 | 532 ± 47.5 | 17.9 ± 0.95 | 171 ± 36 | 21.4 ± 1.33 | 18.6 ± 1.25 | 143 ± 17.4 | 303 ± 16.2 | 
CC[C@H](C)[C@H](NC(=O)[C@@H](NC(=O)[C@H](C)NC(=O)[C@H](Cc1ccc(OP(=O)(O)O)cc1)NC(=O)[C@@H](NC(=O)[C@@H]1CCCN1C(=O)[C@H](CCC(=O)O)NC(=O)[C@@H]1CCCN1C(=O)[C@@H](N)CO)[C@@H](C)CC)[C@@H](C)O)C(=O)N[C@@H](CC(=O)O)C(=O)N[C@@H](CC(=O)O)C(=O)N[C@@H](CC(C)C)C(=O)NCC(=O)O [EPIYA-C] (H-SPEPI[pY]ATIDDLG-OH) | 0.96 ± 0.14 | 119 ± 4.93 | 2.79 ± 0.18 | 22.4 ± 2.88 | 2.78 ± 0.14 | 2.96 ± 0.14 | 12.9 ± 1.38 | 77.5 ± 3.12 | 
CC[C@H](C)[C@H](NC(=O)[C@@H](NC(=O)[C@H](C)NC(=O)[C@H](Cc1ccc(OP(=O)(O)O)cc1)NC(=O)[C@@H](NC(=O)[C@@H]1CCCN1C(=O)[C@H](CCC(=O)O)NC(=O)[C@@H]1CCCN1C(=O)[C@@H](N)CO)[C@@H](C)CC)[C@@H](C)O)C(=O)N[C@@H](CC(=O)O)C(=O)N[C@@H](Cc1ccccc1)C(=O)N[C@@H](CC(=O)O)C(=O)N[C@@H](CCC(=O)O)C(=O)O [EPIYA-D] | 1.14 ± 0.16 | 116 ± 6.61 | 2.69 ± 0.19 | 24.6 ± 2.23 | 3.46 ± 0.2 | 3.16 ± 0.13 | 15.5 ± 2.77 | 76.8 ± 5.16 | 
FcgR2B: Tyr-phosphorylated FcgR2B-ITIM peptide from the authors' previous study (ENTITYSLLMHPD; not fully specified; phospho-Tyr292 (ITIM tyrosine); an 8-mer form (289-296, pY-3 to pY+4) was also used in the cited study) |  |  |  |  |  |  |  |  | Kd ([9]; read-out: Binding Affinities KD for SHIP2-SH2 (FcgR2B ITIM phosphopeptide)): 0.4 µM
GGpYMTL [FcgR2A ITAM, 6-mer FcgR2A ITAM phosphopeptide (−2 to +3) of a previous SPR study] |  |  |  |  |  |  |  |  | KD for SHIP2-SH2 by SPR (comparison in words) [10]: comparable KD values
ITpYSLL [6-mer FcgR2B ITIM, 6-mer FcgR2B ITIM phosphopeptide (-2 to +3) of a previous SPR study] |  |  |  |  |  |  |  |  | KD for SHIP2-SH2 by SPR (comparison in words) [10]: comparable KD values
c-MET: Y1356-phosphorylated c-MET C-terminus peptide from the authors' previous study (NATYVNVK; not fully specified; phospho-Tyr1356) |  |  |  |  |  |  |  |  | Kd ([9]; read-out: Binding Affinities KD for SHIP2-SH2 (c-MET phosphopeptide)): 7.43 µM
